Data taken from the supplement of paper PMC10627819.

Assays:
[1] = system: B. subtilis 168; experiment: fitness (endpoint OD595 vs no drug) (fraction); higher = more growth
Outline: (§1)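 In 384-well plates at 37 °C, cultures began at OD595 0.01 in 30 µl, with 55 µl used for S. pneumoniae. OD595 readings every 30 min for 14 h were corrected by the first reading. Fitness divides the stationary-phase transition optical density by the robust mean of no-drug control wells. The result is capped at 1.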

[2] = system: S. pneumoniae D39V; experiment: as above
Outline: as §1

[3] = system: S. aureus Newman; experiment: as above
Outline: as §1

[4] = system: S. aureus DSM 20231; experiment: Bliss interaction score (quartile over a dose matrix) (fitness difference); higher = more antagonism (negative = synergy)
Outline: (§2)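 Each OD595 reading at entry into stationary phase was scaled to the robust mean of the untreated wells on its plate, with a ceiling of 1. These ratios define fitness, and single-drug fitness was inferred from combinations. The Bliss score compares observed fitness with the product-based expectation and is reported as quartiles across all replicate types, technical, biological and donor/recipient.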

[5] = system: B. subtilis 168; experiment: as above
Outline: as §2

[6] = system: S. pneumoniae D39V; experiment: as above
Outline: as §2

[7] = system: S. aureus Newman; experiment: as above
Outline: as §2
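Throughout, for Bliss interaction score (quartile over a dose matrix): first quartile when negative (synergy) and third quartile when positive (antagonism).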
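Throughout, for fitness (endpoint OD595 vs no drug): OD595 on entry to stationary phase over no-drug wells; at most 1.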

CC1=C(C(=O)O)N2C(=O)[C@@H](NC(=O)[C@H](N)c3ccccc3)[C@H]2SC1 [Cephalexin] + Cc1cc(NS(=O)(=O)c2ccc(N)cc2)no1 [Sulfamethoxazol]
fitness
Conditions	first compound 0.125 µg/mL	first compound 0.25 µg/mL	first compound 0.5 µg/mL	first compound 1 µg/mL
[1], partner 1 µg/mL	0.951	0.924	0.895	–
[1], partner 2 µg/mL	0.904	0.937	0.902	–
[1], partner 4 µg/mL	0.955	0.929	0.945	–
[3], partner 1 µg/mL	–	≥ 1	0.988	1
[3], partner 2 µg/mL	–	≥ 1	0.979	0.983
[3], partner 4 µg/mL	–	0.999	≥ 1	≥ 1

fitness, one replicate
Conditions	first compound 0.125 µg/mL	first compound 0.25 µg/mL	first compound 0.5 µg/mL	first compound 1 µg/mL	first compound 2 µg/mL	first compound 4 µg/mL
[1], partner 0.5 µg/mL	–	0.987	≥ 1	≥ 1	–	–
[1], partner 1 µg/mL	–	–	–	0.861	–	–
[1], partner 2 µg/mL	–	–	–	0.809	–	–
[2], partner 1 µg/mL	0.92	0.925	0.933	0.678	0.0509	0
[2], partner 2 µg/mL	0.961	0.937	0.979	0.717	0.165	0.0786
[2], partner 4 µg/mL	0.963	0.972	0.954	0.685	0.209	0.013
[3], partner 2 µg/mL	–	–	–	–	≥ 1	–
[3], partner 4 µg/mL	–	–	–	–	≥ 1	–
[3], partner 8 µg/mL	–	–	0.944	≥ 1	≥ 1	–

Conditions	Bliss interaction score
[4]	0.059
[5]	0.0517
[6]	0.0504
[7]	-0.021

CC1=C(C(=O)O)N2C(=O)[C@@H](NC(=O)[C@H](N)c3ccccc3)[C@H]2SC1 [Cephalexin] + CN[C@@H]1[C@H](O[C@H]2[C@H](O[C@H]3[C@H](O)[C@@H](O)[C@H](N=C(N)N)[C@@H](O)[C@@H]3N=C(N)N)O[C@@H](C)[C@]2(O)C=O)O[C@@H](CO)[C@H](O)[C@H]1O [Streptomycin]
fitness
Conditions	first compound 0.125 µg/mL	first compound 0.25 µg/mL	first compound 0.5 µg/mL	first compound 1 µg/mL	first compound 2 µg/mL	first compound 4 µg/mL
[1], partner 2 µg/mL	0.94	0.923	0.932	–	–	–
[1], partner 8 µg/mL	0.031	0.0416	0.0533	–	–	–
[2], partner 4 µg/mL	–	–	–	0.454	0.0189	0.0459
[2], partner 8 µg/mL	–	–	–	0.408	0.0381	0.0337
[3], partner 1 µg/mL	–	0.944	0.967	0.987	–	–
[3], partner 2 µg/mL	–	0.976	≥ 1	≥ 1	–	–

fitness, [2], one replicate
Conditions	first compound 0.125 µg/mL	first compound 0.25 µg/mL	first compound 0.5 µg/mL	first compound 1 µg/mL	first compound 2 µg/mL	first compound 4 µg/mL
partner 2 µg/mL	0.86	0.913	0.953	0.386	0.0034	0.0206
partner 4 µg/mL	0.901	0.91	0.911	–	–	–
partner 8 µg/mL	0.961	0.898	0.896	–	–	–
partner 16 µg/mL	–	–	–	0.198	0.0581	0.0194

Conditions	Bliss interaction score
[4]	-0.157
[5]	0.0604
[6]	-0.153
[7]	0.0561

CNC(C)C1CCC(N)C(OC2C(N)CC(N)C(OC3OCC(C)(O)C(NC)C3O)C2O)O1 (centres undefined) [Gentamicin] + CN(N=O)C(=O)N[C@@H](C=O)[C@@H](O)[C@H](O)[C@H](O)CO [Streptozotocin]
fitness, main component drawn
Conditions	partner 0.15 µg/mL	partner 0.3 µg/mL	partner 0.6 µg/mL	partner 1.2 µg/mL	partner 2.4 µg/mL	partner 4.8 µg/mL
[1], first compound 0.0625 µg/mL	0.949	0.952	0.956	–	–	–
[1], first compound 0.25 µg/mL	0.161	0.164	0.12	–	–	–
[2], first compound 2 µg/mL	–	–	–	0.892	0.949	0.914
[2], first compound 4 µg/mL	–	–	–	0.93	0.966	0.949
[2], first compound 8 µg/mL	–	–	–	0.942	0.967	0.878
[3], first compound 0.5 µg/mL	0.871	0.801	0.708	–	–	–
[3], first compound 1 µg/mL	0.888	0.844	0.724	–	–	–
[3], first compound 2 µg/mL	0.898	0.856	0.732	–	–	–

fitness, [3], one replicate, main component drawn
Conditions	first compound 0.375 µg/mL	first compound 0.75 µg/mL	first compound 1.5 µg/mL
partner 0.15 µg/mL	0.851	0.848	0.777
partner 0.3 µg/mL	0.717	0.687	0.706
partner 0.6 µg/mL	0.534	0.585	0.561

main component drawn
Conditions	Bliss interaction score
[4]	-0.0423
[5]	-0.125
[6]	0.0654
[7]	0.0523

CC1=C(C(=O)O)N2C(=O)[C@@H](NC(=O)[C@H](N)c3ccccc3)[C@H]2SC1 [Cephalexin] + CN(N=O)C(=O)N[C@@H](C=O)[C@@H](O)[C@H](O)[C@H](O)CO [Streptozotocin]
fitness, one replicate
Conditions	first compound 0.125 µg/mL	first compound 0.25 µg/mL	first compound 0.5 µg/mL	first compound 1 µg/mL	first compound 2 µg/mL	first compound 4 µg/mL
[1], partner 0.15 µg/mL	0.918	0.932	≥ 1	–	–	–
[1], partner 0.3 µg/mL	≥ 1	≥ 1	≥ 1	–	–	–
[1], partner 0.6 µg/mL	0.952	0.956	0.967	–	–	–
[2], partner 1.2 µg/mL	0.878	0.928	0.953	0.218	0.0084	0.0421
[2], partner 2.4 µg/mL	0.922	0.965	0.968	0.313	0.0518	0.0145
[2], partner 4.8 µg/mL	0.909	0.901	0.922	0.0033	0	0

fitness, [3]
Conditions	first compound 0.25 µg/mL	first compound 0.5 µg/mL	first compound 1 µg/mL
partner 0.15 µg/mL	0.874	0.863	0.876
partner 0.3 µg/mL	0.728	0.735	0.786
partner 0.6 µg/mL	0.6	0.591	0.696

Conditions	Bliss interaction score
[4]	-0.0755
[5]	0.094
[6]	-0.0789
[7]	0.0503

Cc1onc(-c2ccccc2)c1C(=O)N[C@@H]1C(=O)N2[C@@H]1SC(C)(C)[C@@H]2C(=O)O [Oxacillin] + CN[C@@H]1[C@H](O[C@H]2[C@H](O[C@H]3[C@H](O)[C@@H](O)[C@H](N=C(N)N)[C@@H](O)[C@@H]3N=C(N)N)O[C@@H](C)[C@]2(O)C=O)O[C@@H](CO)[C@H](O)[C@H]1O [Streptomycin]
fitness
Conditions	partner 1 µg/mL	partner 2 µg/mL	partner 4 µg/mL	partner 8 µg/mL
[1], first compound 0.002 µg/mL	–	0.982	0.369	0.0333
[1], first compound 0.004 µg/mL	–	0.941	0.208	0.0502
[1], first compound 0.008 µg/mL	–	0.931	0.134	0.0492
[2], first compound 0.01 µg/mL	–	0.938	0.98	0.909
[2], first compound 0.02 µg/mL	–	0.88	0.931	0.908
[2], first compound 0.04 µg/mL	–	0.33	0.399	0.441
[3], first compound 0.0156 µg/mL	0.808	0.726	–	–
[3], first compound 0.0312 µg/mL	0.738	0.644	–	–
[3], first compound 0.0625 µg/mL	0.606	0.531	–	–

fitness, one replicate
Conditions	first compound 0.01 µg/mL	first compound 0.02 µg/mL	first compound 0.04 µg/mL	first compound 0.075 µg/mL	first compound 0.15 µg/mL	first compound 0.3 µg/mL
[1], partner 2 µg/mL	–	–	–	0.534	0.0325	0.0421
[1], partner 4 µg/mL	–	–	–	0.0966	0.025	0.0294
[1], partner 8 µg/mL	–	–	–	0.0343	0.0288	0.0352
[2], partner 16 µg/mL	0.887	0.863	0.436	–	–	–

Conditions	Bliss interaction score
[4]	-0.0653
[5]	-0.113
[6]	0.093
[7]	-0.0537
